pEC50: −log10 of the molar value. Converted amounts (≈) assume the structure as drawn. Like-named read-outs stand apart in the source and are kept apart here.
What was measured:
MK2 enzyme = target: T1, MK2 enzyme (Homo sapiens, UniProt P49137); assay: MK2 enzyme activity, IMAP fluorescence polarization assay; format: biochemical; conditions: for EC50: MK2 IMAP assay
T1 construct: MK2 enzyme (active enzyme (peptide 46-end (Millipore))); purchased Millipore
Excerpt: In another assay the MK2 kinase activity can be determined by using an IMAP assay (Immobilized Metal Assay for Phosphochemicals—based coupled assay). IMAP is a homogeneous fluorescence polarization (FP) assay based on affinity capture of phosphorylated peptide substrates. IMAP uses fluorescein-labeled peptide substrates that, upon phosphorylation by a protein kinase, bind to so called IMAP nanoparticles, which are derivatized with trivalent metal complexes. […] In such an assay, MK2 phosphorylates a fluorescein-labeled peptide substrate (see example 14).
MK2 enzyme activity is measured using the IMAP (immobilized metal ion affinity-based fluorescence polarization) assay as outlined below.
The enzyme is diluted to 100 U/mL the day before use in KR buffer (10 mM Tris-HCl, 10 mM MgCl2, 0.01% Tween-20, 0.05% NaN3, 2 mM DTT, pH 7.2) and stored overnight at −20° C.
The dilutions in DMSO are then diluted 50-fold in KR-buffer of which 5 μl is used in the assay, leading to a final compound concentration range in the assay from 10 μM to 0.316 nM.
After 60 min incubation at room temperature in the dark the FP signal is read. Fluorescence at 535 nm is measured using parallel and perpendicular filters to determine differences in rotation due to binding of the phosphorylated substrate peptide to the beads. Values are calculated as percentage of the difference in readout (ΔmPi) of the controls with and without ATP. EC50 values are determined by curve fitting of the experimental results using Activity Base.

[1] = Solubility determination of MK2 inhibitors (kinetic aqueous solubility, UPLC); format: physicochemical; conditions: aqueous buffer (system solution from pION inc.), 22 °C, pH 7.4, aqueous buffer, kinetic from dmso stock
Description: The solubility can be determined using the Automated Kinetic Aqueous Solubility (AKASol) method, which is an HPLC-UV based method. The method is derived from the classical saturated shake-flask solubility method which has been adapted to the 96-well microtitre plate format, allowing the use of DMSO stock solutions. The solubility is determined by measuring the amount of compound in a saturated aqueous solution, quantified by an external calibration curve of the compound dissolved in DMSO. The solubility (mg/L) is measured at pH 7.4, at room temperature and the final concentration of DMSO in the sample solution is 1%.
The samples were prepared from 10 mM DMSO stock solutions. For each compound under investigation, a volume (9 μL) of the DMSO stock solution is transferred from the DMSO stock solution into 891 μL of buffer solution (system solution from pION inc.) in a 96 deep well plate, which equates to approximately 1% DMSO, using the Packard Multiprobe II robot liquid handling system. The pH of the buffer is manually adjusted at pH 7.4 by adding NaOH. This procedure is done in duplicate for each sample. After shaking for 24 h on a vortex mixer (Heidolph, Titramax 101) at 450 rpm and at room temperature (21-23° C.), 300 uL of the incubated sample is transferred from the deep well plate to a filter plate (PVDF, 0.45 um) on a vacuum manifold. To the filtrate (150 uL) 1-propanol (50 uL) is added to suppress precipitation and this solution is then analysed by UPLC. The solubility is determined using the calibration line previously prepared.
Preparation of the Standards and Built up of a Calibration Line
The calibration line is built with different concentrations of the test compound (standards), prepared from the same 10 mM DMSO stock solution. A volume (7 uL) from the same DMSO stock solution was diluted with DMSO (273 uL) leading to a solution with concentration of 0.25 mM. From this solution, three different injection volumes (0.2, 1, 1.8 uL) were injected on UPLC. The respective peak areas are plotted against amount of compound to build up the calibration line. The calibration line is used to determine the amount of dissolved compound in each sample, selecting the injection that gave peak areas closest to the peak area range of the calibration standards.

[2] = 1 μM ATP, 30 min pre-incubation, 2 h room temperature, read-out: pEC50 value (converted)
[3] = pH 7.4, room temperature, about 1% DMSO, 24 h shaking, read-out: solubility
[4] = Table 1, comparison compound of Formula (XV) without spiro ring, read-out: pEC50, Formula (XV) (converted)
[5] = Table 1, comparison compound of Formula (XV) without spiro ring, pH 7.4, read-out: Solubility pH 7.4 (mg/L), Formula (XV)
[6] = Table 1, compound of Formula (I) with spiro ring, read-out: pEC50, Formula (I) (converted)
[7] = Table 1, compound of Formula (I) with spiro ring, pH 7.4, read-out: Solubility pH 7.4 (mg/L), Formula (I)
[8] = Table 2, comparison compound of Formula (XVI), spiro ring without amine, read-out: pEC50, Formula (XVI) (converted)

T1 sequence (P49137 46-400 limits assumed): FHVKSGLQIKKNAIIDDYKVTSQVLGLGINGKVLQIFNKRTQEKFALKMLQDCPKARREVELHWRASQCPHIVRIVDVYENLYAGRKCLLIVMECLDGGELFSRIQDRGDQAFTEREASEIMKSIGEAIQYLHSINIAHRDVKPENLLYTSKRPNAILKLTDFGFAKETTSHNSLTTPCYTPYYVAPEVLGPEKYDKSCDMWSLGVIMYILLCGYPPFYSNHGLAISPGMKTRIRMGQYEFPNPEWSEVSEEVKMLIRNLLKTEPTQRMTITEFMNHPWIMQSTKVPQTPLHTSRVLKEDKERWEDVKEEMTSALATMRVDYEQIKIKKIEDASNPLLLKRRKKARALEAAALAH

O=C1NCC2(CCNCC2)c2[nH]c(-c3nc(-c4ccc5c(c4)OCO5)ncc3F)cc21 [4—2, 2′-(2-(benzo[d][1,3]dioxol-5-yl)-5-fluoropyrimidin-4-yl)-5′,6′-dihydrospiro[piperidine-4,7′-pyrrolo[3,2-c]pyridin]-4′(1′H)-one]
EC50 (MK2 enzyme; [2]): 3.16 to 31.6 nM | solubility at 24 h [1, 3]: 20 to 50 mg/L (≈ 47.5 to 119 µM)

Cc1cc(-c2nccc(-c3cc4c([nH]3)C3(CCNCC3)CNC4=O)n2)cc(C(C)(C)C)c1 [1—19, 2′-(2-(3-tert-butyl-5-methylphenyl)pyrimidin-4-yl)-5′,6′-dihydrospiro[piperidine-4,7′-pyrrolo[3,2-c]pyridin]-4′(1′H)-one]
EC50 (MK2 enzyme; [2]): 31.6 to 316 nM | solubility at 24 h [1, 3]: ≥ 50 mg/L

O=C1NCCc2[nH]c(-c3ccnc(-c4ccccc4F)n3)cc21 [16_4 Formula (XV)]
EC50 (MK2 enzyme; [4]): 1000 nM | solubility at 24 h [1, 5]: 44 mg/L

O=C1NCC2(CCNCC2)c2[nH]c(-c3ccnc(-c4cnc(NC5CCCC5)nc4)n3)cc21 [11—1, 2′-(2′-(cyclopentylamino)-2,5′-bipyrimidin-4-yl)-5′,6′-dihydrospiro[piperidine-4,7′-pyrrolo[3,2-c]pyridin]-4′(1′H)-one]
EC50 (MK2 enzyme; [2]): ≤ 3.16 nM | solubility at 24 h [1, 3]: ≥ 50 mg/L

NCCN1CCC2(CC1)CNC(=O)c1cc(-c3ccnc(-c4cc5ccccc5o4)n3)[nH]c12 [Example 2—3, 1-(2-aminoethyl)-2′-(2-(benzofuran-2-yl)pyrimidin-4-yl)-5′,6′-dihydrospiro[piperidine-4,7′-pyrrolo[3,2-c]pyridin]-4′(1′H)-one]
EC50 (MK2 enzyme; [2]): 31.6 to 316 nM | solubility at 24 h [1, 3]: ≥ 50 mg/L

CC(=O)NCCCN1CCC2(CC1)CNC(=O)c1cc(-c3ccnc(-c4cc5ccccc5o4)n3)[nH]c12 [3—2, N-(3-(2′-(2-(benzofuran-2-yl)pyrimidin-4-yl)-4′-oxo-1′,4′,5′,6′-tetrahydrospiro[piperidine-4,7′-pyrrolo[3,2-c]pyridine]-1-yl)propyl)acetamide]
EC50 (MK2 enzyme; [2]): 31.6 to 316 nM | solubility at 24 h [1, 3]: ≥ 50 mg/L

O=C1NCCc2[nH]c(-c3ccnc(-c4cc5ccccc5o4)n3)cc21 [16_6 Formula (XV)]
EC50 (MK2 enzyme; [4]): 50.1 nM | solubility at 24 h [1, 5]: 2 mg/L

O=C1NCC2(CCNCC2)c2[nH]c(-c3ccnc(-c4cccc(F)c4)n3)cc21 [16_3 Formula (I)]
EC50 (MK2 enzyme; [6]): 7.94 nM | solubility at 24 h [1, 7]: 36 mg/L

O=C1NCC2(CNCCO2)c2[nH]c(-c3ccnc(-c4cc5ccccc5o4)n3)cc21 (stereo not shown) [7—1, 2′-(2-(benzofuran-2-yl)pyrimidin-4-yl)-5′,6′-dihydrospiro[morpholine-2,7′-pyrrolo[3,2-c]pyridin]-4′(1′H)-one]
EC50 (MK2 enzyme; [2]): 31.6 to 316 nM | solubility at 24 h [1, 3]: ≥ 50 mg/L

CC(=O)c1ccc(-c2nccc(-c3cc4c([nH]3)CCNC4=O)n2)cc1 [16_8 Formula (XV)]
EC50 (MK2 enzyme; [4]): 126 nM | solubility at 24 h [1, 5]: 3 mg/L

Cc1ccc(-c2nccc(-c3cc4c([nH]3)C3(CCNC3)CNC4=O)n2)cc1 (stereo not shown) [6—3, 2′-(2-p-tolylpyrimidin-4-yl)-5′,6′-dihydrospiro[pyrrolidine-3,7′-pyrrolo[3,2-c]pyridin]-4′(1′H)-one]
EC50 (MK2 enzyme; [2]): 3.16 to 31.6 nM | solubility at 24 h [1, 3]: ≥ 50 mg/L

O=C1NCC2(CCNCC2)c2[nH]c(-c3ccnc(-c4nc5ccccc5s4)n3)cc21 [9—2, 2′-(2-(benzo[d]thiazol-2-yl)pyrimidin-4-yl)-5′,6′-dihydrospiro[piperidine-4,7′-pyrrolo[3,2-c]pyridin]-4′(1′H)-one]
EC50 (MK2 enzyme; [2]): 3.16 to 31.6 nM | solubility at 24 h [1, 3]: ≥ 50 mg/L

NCC(=O)N1CCC2(CC1)CNC(=O)c1cc(-c3ccnc(-c4cc5ccccc5o4)n3)[nH]c12 [10—1, 1-(2-aminoacetyl)-2′-(2-(benzofuran-2-yl)pyrimidin-4-yl)-5′,6′-dihydrospiro[piperidine-4,7′-pyrrolo[3,2-c]pyridin]-4′(1′H)-one]
EC50 (MK2 enzyme; [2]): 31.6 to 316 nM | solubility at 24 h [1, 3]: ≥ 50 mg/L

COc1cc(-c2nccc(-c3cc4c([nH]3)C3(CCNCC3)CNC4=O)n2)ccc1O [1—20, 2′-(2-(4-hydroxy-3-methoxyphenyl)pyrimidin-4-yl)-5′,6′-dihydrospiro[piperidine-4,7′-pyrrolo[3,2-c]pyridin]-4′(1′H)-one]
EC50 (MK2 enzyme; [2]): 31.6 to 316 nM | solubility at 24 h [1, 3]: ≥ 50 mg/L

O=C1NCC2(CCNCC2)c2[nH]c(-c3ccnc(-c4ccc5c(c4)OCCCO5)n3)cc21 [1—11, 2′-(2-(3,4-dihydro-2H-benzo[b][1,4]dioxepin-7-yl)pyrimidin-4-yl)-5′,6′-dihydrospiro[piperidine-4,7′-pyrrolo[3,2-c]pyridin]-4′(1′H)-one]
EC50 (MK2 enzyme; [2]): 3.16 to 31.6 nM | solubility at 24 h [1, 3]: ≥ 50 mg/L

O=C1NCC2(CCNCC2)c2[nH]c(-c3ccnc(-c4ccccc4F)n3)cc21 [1—4, 2′-(2-(2-fluorophenyl)pyrimidin-4-yl)-5′,6′-dihydrospiro[piperidine-4,7′-pyrrolo[3,2-c]pyridin]-4′(1′H)-one]
EC50 (MK2 enzyme; [2]): 3.16 to 31.6 nM | solubility at 24 h [1, 3]: 20 to 50 mg/L (≈ 53 to 132 µM)

O=C1NCC2(CCNCC2)c2[nH]c(-c3ccnc(-c4cnc5ccccc5c4)n3)cc21 [1—21, 2′-(2-(quinolin-3-yl)pyrimidin-4-yl)-5′,6′-dihydrospiro[piperidine-4,7′-pyrrolo[3,2-c]pyridin]-4′(1′H)-one]
EC50 (MK2 enzyme; [2]): 3.16 to 31.6 nM | solubility at 24 h [1, 3]: 20 to 50 mg/L (≈ 48.7 to 122 µM)

O=C1NCC2(CCNCC2)c2[nH]c(-c3ccnc(-c4cc5ccccc5o4)c3)cc21 [16_7 Formula (I)]
EC50 (MK2 enzyme; [6]): 3.16 nM | solubility at 24 h [1, 7]: 66 mg/L

O=C1NCC2(CCNCC2)c2[nH]c(-c3ccnc(-c4cc5ccccc5s4)n3)cc21 [1—28, 2′-(2-(benzo[b]thiophen-2-yl)pyrimidin-4-yl)-5′,6′-dihydrospiro[piperidine-4,7′-pyrrolo[3,2-c]pyridin]-4′(1′H)-one]
EC50 (MK2 enzyme; [2]): 3.16 to 31.6 nM | solubility at 24 h [1, 3]: ≥ 50 mg/L

O=C1NCC2(CCNCC2)c2[nH]c(-c3ccnc(-c4ccc(Cl)cc4F)n3)cc21 [1—32, 2′-(2-(4-chloro-2-fluorophenyl)pyrimidin-4-yl)-5′,6′-dihydrospiro[piperidine-4,7′-pyrrolo[3,2-c]pyridin]-4′(1′H)-one]
EC50 (MK2 enzyme; [2]): 3.16 to 31.6 nM | solubility at 24 h [1, 3]: ≥ 50 mg/L

O=C1NCC2(CCCC2)c2[nH]c(-c3ccnc(-c4cccc(F)c4)n3)cc21 [17_4 Formula (XVI)]
EC50 (MK2 enzyme; [8]): 316 nM

O=C(Nc1nccc(-c2cc3c([nH]2)C2(CCCNC2)CNC3=O)n1)c1cccc(OC(F)(F)F)c1 (stereo not shown) [13—2, N-(4-(4′-oxo-1′,4′,5′,6′-tetrahydrospiro[piperidine-3,7′-pyrrolo[3,2-c]pyridine]-2′-yl)pyrimidin-2-yl)-3-(trifluoromethoxy)benzamide]
EC50 (MK2 enzyme; [2]): 31.6 to 316 nM | solubility at 24 h [1, 3]: 20 to 50 mg/L (≈ 41.1 to 103 µM)

O=C1NCCc2[nH]c(-c3ccnc(-c4cnc5ccccc5c4)c3)cc21 [16_1 Formula (XV)]
solubility at 24 h [1, 5]: 2 mg/L

O=C1NCCc2[nH]c(-c3ccnc(-c4cnc5ccccc5c4)n3)cc21 [16_2 Formula (XV)]
pEC50 (MK2 enzyme): 8.00

O=C1NCC2(CCCC2)c2[nH]c(-c3ccnc(-c4cnc5ccccc5c4)n3)cc21 [17_3 Formula (XVI)]
EC50 (MK2 enzyme; [8]): 251 nM
